{
  "source": "patent US5104859A",
  "about": "“Continuous administration of adenosine to reduce pulmonary vascular resistance” (priority 1990, dated 1992)",
  "key": {"[1]": {"system": "systemic arterial blood pressure and central hemodynamics", "experiment": "Controlled hypotension in surgical patients without dipyridamole pretreatment", "format": "in vivo, human", "method": "For this indication, adenosine typically is administered intravenously via the left basilic vein or via a central vein in an amount (or at a rate) sufficient to achieve the desired hypotensive effect.\nThe actual plasma levels of adenosine employed for controlled hypotension will vary, depending upon such factors as the particular patient, the age of the patient and the desired degree of hypotension. […] The hypotensive effect of adenosine was then studied upon this hypotensive dose of dipyridamole.\nSubsequent to the tests described above, a 20 mM solution of adenosine in isotonic saline was administered to 50 surgical patients employing techniques similar to those described, except that pretreatment with dipyridamole was omitted."}, "[2]": {"system": "coronary bypass grafts", "experiment": "Coronary bypass graft flow and hemodynamics during coronary artery surgery", "method": "It has been reported that coronary artery grafts occlude more frequently during the postoperative period when low graft-flow values are obtained during surgery. See Groudin et al, Circulation, 42: Suppl 3: 106-111 (1970).\nIn a study designed to investigate the use of adenosine to inhibit occlusion of coronary grafts, nine patients (age 45-65, all taking beta-blockers) were studied during coronary artery surgery. After premedication, morphine (10-15 mg) and scopolamine (0.4-0.6 mg), anesthesia was induced by fentanyl (30 mcg/kg.b.w.). Pancuronium (0.1 mg/kg b.w.) was given to facilitate endotracheal intubation. Anesthesia was maintained with fentanyl 0.5 mg/hour, N2 O (50%) in oxygen and droperidol (0.1 mg/kg b.w.). During bypass thiomebumal (5 mg/kg b.w.) was given. Nitrous oxide was not used after bypass. Extracorporeal circulation (ECC) was performed with a roller pump and a Shiley bubble oxyqenator primed with crystalloid solution. ECG (modified V5), an arterial line and a Swan-Ganz Catheter were used for monitoring and for hemodynamic measurements. Blood flow in bypass grafts (n=15, internal mammary and venous grafts), was measured with appropriate sized square wave electromagnetic flow probes (Nycotron 732). The study was performed 20-30 minutes after the termination of ECC. After a control period (5 min), adenosine (5.3 mg/ml. clinical solution) was continuously infused in a central vein in order to induce approximately 10% reduction of mean arterial blood pressure (about 30 to 50 ug per kg. per min.). Graft flow was continuously measured before and during a 10 or 30 minute infusion of adenosine and finally during the following 5 minute control period. Data are expressed as mean ±SEM and differences were tested with Student's paired t-test against the preceding period."}, "[3]": {"system": "platelets", "experiment": "Platelet protection during cardiopulmonary bypass", "format": "in vivo, human", "method": "Twenty-five patients scheduled for coronary artery bypass surgery were randomly assigned to two groups--one with adenosine infusion (n=13) and the other with placebo infusion (n=12).\nIntravenous anesthesia was used, either high-dose fentanyl (100-150 ug/kg) or balanced anesthesia (thiopental, fentanyl, diazepam and N2 O/O2.\nDuring cardiopulmonary bypass (CPB), mean arterial blood pressure (MABP) above 70 mmHg was treated with the vasodilator sodium nitroprusside (SNP), except in the final phase or rewarming. CPB was performed with SARN roller pump and a Shiley oxygenator (100A) primed with 2000 ml crystalloid solution (75 mg heparin). The perfusion rate was kept at approximately […] body surface. Moderate hypothermia (25° C.) was induced. Cardioplegia was obtained with Ringer's solution (with added potassium up to 20 mM/1). Heparin (3 mg/kg) was administered as a bolus injection before cannulation. The heparin effect was controlled by measurements of activated clotting time. (Hemocron® Int. Technidyne Corp, USA). […] At the termination of CPB, the heparin effect was antagonized with protamine (c. 1.3 mg/mg heparin). ACT was checked 10-20 min after the protamine injection. ACT values 120 sec were considered satisfactory.\nPlatelet count (Linson 431 A cell counter) and hematocrit were determined in arterial samples before anesthesia, after thoracotomy, during CPB at 10, 20, 40, 60, 80 and 100 min, 30 min after CPB and on the postoperative day. Platelet counts were expressed in percentage of preanesthesia levels and were corrected for hemodilution. MABP was monitored continuously via a catheter introduced in the radial artery. All patients received hypertonic mannitol (1-1.5 g/kg) during CPB and urine production was calculated as ml/.min of CPB (Table VI). […]\nStatistical significance (controls v. adenosine group) was determinted with Student's t-test for unpaired data. For significance within the groups the Wilcoxon Rank Sum test was used. p […] 0.05 was regarded as significant."}, "[4]": {"system": "blood pressure", "experiment": "Control of hypertensive crisis during surgery", "format": "in vivo, human", "conditions": "about 0.1 to about 0.2 mg/kg/min", "method": "Continuous infusion of adenosine can also be employed to control hypertensive crises occurring during surgery. Such crises can occur, for example, as a result of release of catecholamines during surgery on pheochromocytoma--a tumor characterized by the presence of catecholamine--which can cause pulmonary edema and death. At present, this situation is treated prophylactically by pre-administration of alpha- and beta-adrenoceptor blockers or vasodilators, but the effect is often insufficient. […] Amounts of adenosine which are effective in controlling such hypertensive crises will depend on the degree of hypertension. However, as a general rule they are about half of the amounts found useful for controlled hypotension, i.e., in the range of from about 0.1 to about 0.2 mg adenosine per kilogram of body weight per minute."}},
  "note": "Entries after “also recorded” stand apart in the source; their conditions may differ.",
  "data": [
    {"smiles": "Nc1ncnc2c1ncn2[C@@H]1O[C@H](CO)[C@@H](O)[C@H]1O", "note": "[adenosine]", "values": [
      {"measurement": "mean arterial blood pressure achieved", "setting": "[1]; about 0.2 to about 0.35 mg/kg/min", "value": "40 to 50", "unit": "mm Hg"},
      {"measurement": "mean arterial blood pressure achieved without significant side effects", "setting": "[1]; as low as, cannula in left radial artery", "value": "40 millimeters of mercury"},
      {"measurement": "effective adenosine dose in man relative to dog", "setting": "[1]; man 0.2 to 0.35 mg/kg/minute", "value": "30 to 50", "unit": "times lower"},
      {"measurement": "graft blood flow, post-operative low dose", "setting": "[2]; 0.02 to 0.05 mg/kg/min, words", "value": "increase graft blood flow"},
      {"measurement": "graft flow", "setting": "[2]; 30-50 ug per kg per min", "value": "doubled graft flow; also recorded: marked and reproducible increase in graft flow"},
      {"measurement": "myocardial work", "setting": "[2]; 30-50 ug per kg per min", "value": "without increased myocardial work"},
      {"measurement": "arrhythmias", "setting": "[2]; 49±4 ug/kg/minute", "value": "No arrhythmias were observed"},
      {"measurement": "heart rate, mean pulmonary artery pressure, central venous pressure, stroke index and left ventricular stroke work index", "setting": "[2]; 49±4 ug/kg/minute", "value": "remained essentially unchanged"},
      {"measurement": "increase of cardiac output", "setting": "[2]; 49±4 ug/kg/minute", "value": 12, "unit": "%"},
      {"measurement": "reduction of mean arterial pressure", "setting": "[2]; 49±4 ug/kg/minute", "value": 12, "unit": "%"},
      {"measurement": "Cardiac output", "setting": "[2]; control after adenosine", "value": "5.3 ± 0.3", "unit": "L/min"},
      {"measurement": "Left Ventricular Stroke Index", "setting": "[2]; control after adenosine", "value": "0.49 ± 0.04", "unit": "Joule/n^2"},
      {"measurement": "Mean Arterial Pressure", "setting": "[2]; control after adenosine", "value": "85 ± 3", "unit": "mmHg"},
      {"measurement": "Pulmonary Artery Pressure (mean)", "setting": "[2]; control after adenosine", "value": "19.9 ± 1.0", "unit": "mmHg"},
      {"measurement": "RAP (mean)", "setting": "[2]; control after adenosine", "value": "5.8 ± 0.7", "unit": "mmHg"},
      {"measurement": "Stroke Index", "setting": "[2]; control after adenosine", "value": "39.6 ± 2.5", "unit": "ml/m^2"},
      {"measurement": "heart rate", "setting": "[2]; control after adenosine", "value": "81 ± 6", "unit": "beats/min."},
      {"measurement": "graft flow", "setting": "[2]; control after adenosine, n = 15", "value": "39 ± 5", "unit": "mL/min"},
      {"measurement": "Cardiac output", "setting": "[2]; during adenosine", "value": "5.6 ± 0.3", "unit": "L/min"},
      {"measurement": "Left Ventricular Stroke Index", "setting": "[2]; during adenosine", "value": "0.41 ± 0.03", "unit": "Joule/n^2"},
      {"measurement": "Mean Arterial Pressure", "setting": "[2]; during adenosine", "value": "74 ± 3", "unit": "mmHg"},
      {"measurement": "Pulmonary Artery Pressure (mean)", "setting": "[2]; during adenosine", "value": "18.8 ± 1.2", "unit": "mmHg"},
      {"measurement": "RAP (mean)", "setting": "[2]; during adenosine", "value": "5.3 ± 0.4", "unit": "mmHg"},
      {"measurement": "Stroke Index", "setting": "[2]; during adenosine", "value": "38.8 ± 2.0", "unit": "ml/m^2"},
      {"measurement": "heart rate", "setting": "[2]; during adenosine", "value": "82 ± 15", "unit": "beats/min."},
      {"measurement": "graft flow", "setting": "[2]; during adenosine, n = 15", "value": "77 ± 7", "unit": "mL/min"},
      {"measurement": "graft flow rate on termination of adenosine", "setting": "[2]; in vivo", "value": "restored to its original value"},
      {"measurement": "atrio-ventricular conductance at low dose", "setting": "[2]; post-operative low doses, words", "value": "without significant effect on atrio-ventricular conductance"},
      {"measurement": "intergroup difference in platelet counts", "setting": "[3]; 60 min to end of CPB and 30 min after CPB", "value": "significant intergroup difference in platelet counts"},
      {"measurement": "infusion rate effective in protecting platelets", "setting": "[3]; cardiopulmonary bypass", "value": "about 100 ug/kg/min"},
      {"measurement": "Platelet Count; % of Awake Count", "setting": "[3]; during CPB, 10 minutes", "value": "96 % of Awake Count"},
      {"measurement": "Platelet Count; % of Awake Count", "setting": "[3]; during CPB, 20 minutes", "value": "87 % of Awake Count"},
      {"measurement": "Platelet Count; % of Awake Count", "setting": "[3]; during CPB, 40 minutes", "value": "85 % of Awake Count"},
      {"measurement": "Platelet Count; % of Awake Count", "setting": "[3]; during CPB, 60 minutes", "value": "91 % of Awake Count"},
      {"measurement": "Platelet Count; % of Awake Count", "setting": "[3]; during CPB, 80 minutes", "value": "100 % of Awake Count"},
      {"measurement": "Platelet Count; % of Awake Count", "setting": "[3]; during CPB, 100 minutes", "value": "97 % of Awake Count"},
      {"measurement": "initial platelet reduction", "setting": "[3]; during adenosine infusion", "value": "small, and was significant only at 20 and 40 minutes on CPB"},
      {"measurement": "Platelet Count; % of Awake Count", "setting": "[3]; post CPB, 30 minutes", "value": "88 % of Awake Count"},
      {"measurement": "Platelet Count; % of Awake Count", "setting": "[3]; post CPB, 24 hours", "value": "60 % of Awake Count"},
      {"measurement": "blood pressure in catecholamine-induced hypertensive crisis", "setting": "[4]", "value": "rapidly restore blood pressure to normal"}
    ]}
  ]
}
